Test results from patent US20190105367A1, “ANTIMICROBIAL 4-OXOQUINOLIZINES” (Emergent Product Development Gaithersburg Inc., priority 2011, published 2019).
≈ marks a conversion by molar mass, not a printed value. Like-named read-outs stand apart in the source and are kept apart here.

What was measured:
[1] = system: Acinetobacter sp. (H064200250); experiment: MIC without and with sub-inhibitory polymyxin B (Example 4); assay type: cell-based; settings: for MIC: Acinetobacter
A. baumannii A472 [2] = experiment: Preliminary MBC without and with sub-inhibitory polymyxin B (Example 4); assay type: cell-based, Acinetobacter baumannii; settings: Acinetobacter baumannii, A472, read-out: MBC +[…] PB, A. baumannii A472; +[…] polymyxin B; preliminary MBC; 1st experiment
A. baumannii J2 = experiment: MIC without and with sub-inhibitory polymyxin B (Example 4); assay type: cell-based, Acinetobacter baumannii; settings: for MIC without PB/MIC + PB: A. baumannii J2
A. baumannii ATCC 19606 [3] = experiment: as above; assay type: cell-based, Acinetobacter baumannii; settings: for MIC without PB/MIC + PB: A. baumannii ATCC 19606; for MIC: Acinetobacter baumannii
A. baumannii A14 [4] = experiment: as above; assay type: cell-based, Acinetobacter baumannii; settings: 1st experiment
A. baumannii NCTC 13301 [5] = experiment: as above; assay type: cell-based, Acinetobacter baumannii; settings: A. baumannii NCTC 13301; +[…] PB; 2nd experiment
A. baumannii A472 [6] = experiment: as above; assay type: cell-based, Acinetobacter baumannii; settings: 1st experiment
A. baumannii A387 [7] = experiment: Preliminary MBC without and with sub-inhibitory polymyxin B (Example 4); assay type: cell-based, Acinetobacter baumannii; settings: Acinetobacter baumannii, A387, read-out: MBC +0.06 μg/ml PB, A. baumannii A387, +0.06 μg/ml polymyxin B, 1st experiment
A. baumannii A473 [8] = experiment: MIC without and with sub-inhibitory polymyxin B (Example 4); assay type: cell-based, Acinetobacter baumannii; settings: +0.06 μg/ml PB, 2nd experiment
[9] = system: strains of A. baumannii and one strain of Acinetobacter sp.; experiment: MIC with sub-inhibitory concentrations (0.25x MIC) of polymyxin B, panel of Acinetobacter strains (Example 4); assay type: cell-based
A. baumannii A14 [10] = experiment: Preliminary MBC without and with sub-inhibitory polymyxin B (Example 4); assay type: cell-based, Acinetobacter baumannii; settings: 2nd experiment
Procedure, shortened: (§1)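 Bactericidal endpoint scored visually on plates incubated at 37° C (18-20 hours): the lowest concentration where growth fell about 90% versus the positive control, generally leaving one colony or none.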

A. baumannii NCTC 13301 [11] = experiment: as above; assay type: cell-based, Acinetobacter baumannii; settings: Acinetobacter baumannii, NCTC13301, read-out: MBC +[…] PB
Procedure, shortened: as §1

A. baumannii A390 [12] = experiment: as above; assay type: cell-based, Acinetobacter baumannii; settings: Acinetobacter baumannii, A390, A. baumannii A390, +0.06 μg/ml PB, 2nd experiment, read-out: MBC
Procedure, shortened: as §1

A. baumannii A473 [13] = experiment: as above; assay type: cell-based, Acinetobacter baumannii; settings: Acinetobacter baumannii, A473, A. baumannii A473, +0.06 μg/ml PB, 2nd experiment, read-out: MBC
Procedure, shortened: as §1

A. baumannii NCTC 13301 [14] = experiment: MIC without and with sub-inhibitory polymyxin B (Example 4); assay type: cell-based, Acinetobacter baumannii
A. baumannii A390 [15] = experiment: as above; assay type: cell-based, Acinetobacter baumannii; settings: +0.06 μg/ml PB, 2nd experiment
A. baumannii A14 [16] = experiment: as above; assay type: cell-based, Acinetobacter baumannii; settings: 2nd experiment
A. baumannii A489 = experiment: as above; assay type: cell-based, Acinetobacter baumannii; settings: for MIC without PB/MIC + PB: A. baumannii A489; for MIC: Acinetobacter baumannii
A. baumannii A401 [17] = experiment: Preliminary MBC without and with sub-inhibitory polymyxin B (Example 4); assay type: cell-based, Acinetobacter baumannii; settings: Acinetobacter baumannii
A. baumannii A329 = experiment: MIC without and with sub-inhibitory polymyxin B (Example 4); assay type: cell-based, Acinetobacter baumannii; settings: A. baumannii A329; +0.06 μg/ml PB; 2nd experiment
A. baumannii A387 [18] = experiment: as above; assay type: cell-based, Acinetobacter baumannii
A. baumannii A401 [19] = experiment: as above; assay type: cell-based, Acinetobacter baumannii; settings: for MIC: Acinetobacter baumannii
A. baumannii A14 [20] = experiment: Preliminary MBC without and with sub-inhibitory polymyxin B (Example 4); assay type: cell-based, Acinetobacter baumannii; settings: A. baumannii A14; +0.06 μg/ml polymyxin B; preliminary MBC; 1st experiment
A. baumannii ATCC 19606 [21] = experiment: as above; assay type: cell-based, Acinetobacter baumannii; settings: Acinetobacter baumannii
[22] = A. baumannii A14, +0.06 μg/ml PB

Cc1c(-c2ccc(CN)cc2)ccn2c(=O)c(C(=O)O)cc(C3CC3)c12 [Compound 5, 8-(4-aminomethyl-phenyl)-1-cyclopropyl-9-methyl-4-oxo-quinolizine-3-carboxylic acid]
MIC [1]: 4 µg/mL (≈ 11.5 µM) | MIC without PB/MIC + PB ([1]; Acinetobacter spp. H064200250 (OXA51), +[…] PB, 2nd experiment): 4 | MIC without PB/MIC + PB ([1]; Acinetobacter spp. H064200250, ratio, PB […], 1st experiment): 16 | MIC ([1]; read-out: MIC +[…] PB, Acinetobacter spp. H064200250, +[…] polymyxin B, 1st experiment): 1 µg/mL (≈ 2.87 µM) | MBC (A. baumannii A472 [2]): 1 µg/mL (≈ 2.87 µM) | MIC without PB/MIC + PB (A. baumannii J2; +[…] PB, 2nd experiment): 8 | MIC without PB/MIC + PB (A. baumannii J2; ratio, PB […], 1st experiment): 16 | MIC (A. baumannii J2; Acinetobacter baumannii, J2, read-out: MIC +[…] PB, A. baumannii J2, +[…] polymyxin B, 1st experiment): 0.5 µg/mL (≈ 1.44 µM) | MIC without PB/MIC + PB (A. baumannii ATCC 19606 [3]; +0.06 μg/ml PB, 2nd experiment): 8 | MIC without PB/MIC + PB (A. baumannii ATCC 19606 [3]; ratio, PB 0.06 μg/ml, 1st experiment): 4 | MIC (A. baumannii ATCC 19606 [3]; ATCC19606, A. baumannii ATCC 19606, +0.06 μg/ml PB, 2nd experiment, read-out: MIC): 0.06 µg/mL (≈ 0.172 µM) | MIC (A. baumannii ATCC 19606 [3]; ATCC19606, read-out: MIC +0.06 μg/ml PB, A. baumannii ATCC 19606, +0.06 μg/ml polymyxin B, 1st experiment): 0.06 µg/mL | MIC +0.06 μg/ml PB (A. baumannii A14 [4]; +0.06 μg/ml polymyxin B): 4 µg/mL | MIC without PB/MIC + PB (A. baumannii A14 [4]; ratio, PB 0.06 μg/ml): 8 | MIC without PB/MIC + PB (A. baumannii NCTC 13301 [5]): 8 | MIC without PB/MIC + PB (A. baumannii A472 [6]; A. baumannii A472, ratio, PB […]): 8 | MIC (A. baumannii A472 [6]; Acinetobacter baumannii, A472, read-out: MIC +[…] PB, A. baumannii A472, +[…] polymyxin B): 1 µg/mL (≈ 2.87 µM) | MBC (A. baumannii A387 [7]): 0.25 µg/mL | MIC without PB/MIC + PB (A. baumannii A473 [8]; A. baumannii A473): 8 | MIC (A. baumannii A473 [8]; Acinetobacter baumannii, A473, A. baumannii A473, read-out: MIC): 1 µg/mL (≈ 2.87 µM) | Range ratios MIC without PB/MIC with PB Oct. 1, 2008 n = 8 ([9]; 1st experiment): 8-16 | MIC range with PB (0.25x MIC) Oct. 1, 2008 n = 8 ([9]; 1st experiment, […] polymyxin B, ATCC 19606, A329, A390 and A473 not taken): 0.25 to 4 µg/mL | Range ratios MIC without PB/MIC with PB Oct. 14, 2008 n = 11 ([9]; 2nd experiment): 4-32 | MIC range with PB (0.25x MIC) Oct. 14, 2008 n = 11 ([9]; 2nd experiment, 0.06 μg/ml polymyxin B, all strains except the ATCC strain): 0.25 to 8 µg/mL | MBC (A. baumannii A14 [10]; [22]): 4 µg/mL (≈ 11.5 µM) | MBC (A. baumannii A14 [10]; Acinetobacter baumannii, A14, A. baumannii A14, without PB, read-out: MBC): 16 µg/mL (≈ 45.9 µM) | MBC (A. baumannii NCTC 13301 [11]): 1 µg/mL (≈ 2.87 µM) | MBC (A. baumannii A390 [12]): 2 µg/mL (≈ 5.74 µM) | MBC (A. baumannii A473 [13]): 1 µg/mL (≈ 2.87 µM) | MIC without PB/MIC + PB (A. baumannii NCTC 13301 [14]; A. baumannii NCTC 13301, ratio, PB […], 1st experiment): 16 | MIC (A. baumannii NCTC 13301 [14]; Acinetobacter baumannii, NCTC13301, read-out: MIC +[…] PB): 1 µg/mL (≈ 2.87 µM) | MIC without PB/MIC + PB (A. baumannii A390 [15]; A. baumannii A390): 4 | MIC (A. baumannii A390 [15]; Acinetobacter baumannii, A390, A. baumannii A390, read-out: MIC): 2 µg/mL (≈ 5.74 µM) | MIC (A. baumannii A14 [16]; [22]): 4 µg/mL (≈ 11.5 µM) | MIC without PB/MIC + PB (A. baumannii A14 [16]; [22]): 4 | MIC (A. baumannii A14 [16]; Acinetobacter baumannii, A14, A. baumannii A14, without PB, read-out: MIC): 16 µg/mL (≈ 45.9 µM) | MIC without PB/MIC + PB (A. baumannii A489; +[…] PB, 2nd experiment): 16 | MIC without PB/MIC + PB (A. baumannii A489; ratio, PB […], 1st experiment): 8 | MIC (A. baumannii A489; A489, A. baumannii A489, +[…] PB, 2nd experiment, read-out: MIC): 0.5 µg/mL (≈ 1.44 µM) | MIC (A. baumannii A489; A489, read-out: MIC +[…] PB, A. baumannii A489, +[…] polymyxin B, 1st experiment): 0.5 µg/mL (≈ 1.44 µM) | MBC (A. baumannii A401 [17]; A401, A baumannii A 401, +0.06 μg/ml PB, 2nd experiment, read-out: MBC): 4 µg/mL (≈ 11.5 µM) | MBC (A. baumannii A401 [17]; A401, read-out: MBC +0.06 μg/ml PB, A baumannii A 401, +0.06 μg/ml polymyxin B, 1st experiment): 2 µg/mL | MIC without PB/MIC + PB (A. baumannii A329): 1 | MIC without PB/MIC + PB (A. baumannii A387 [18]; A. baumannii A387, +0.06 μg/ml PB, 2nd experiment): 4 | MIC +0.06 μg/ml PB (A. baumannii A387 [18]; A. baumannii A387, +0.06 μg/ml polymyxin B, 1st experiment): 0.25 µg/mL | MIC without PB/MIC + PB (A. baumannii A387 [18]; A. baumannii A387, ratio, PB 0.06 μg/ml, 1st experiment): 8 | MIC (A. baumannii A387 [18]; Acinetobacter baumannii, A387, A. baumannii A387, +0.06 μg/ml PB, 2nd experiment, read-out: MIC): 1 µg/mL (≈ 2.87 µM) | MIC without PB/MIC + PB (A. baumannii A401 [19]; A baumannii A 401, ratio, PB 0.06 μg/ml, 1st experiment): 8 | MIC (A. baumannii A401 [19]; A401, A baumannii A 401, +0.06 μg/ml PB, 2nd experiment, read-out: MIC): 4 µg/mL (≈ 11.5 µM) | MIC (A. baumannii A401 [19]; A401, read-out: MIC +0.06 μg/ml PB, A baumannii A 401, +0.06 μg/ml polymyxin B, 1st experiment): 2 µg/mL | MBC +0.06 μg/ml PB (A. baumannii A14 [20]): 8 µg/mL | MBC (A. baumannii ATCC 19606 [21]; ATCC19606, A. baumannii ATCC 19606, +0.06 μg/ml PB, 2nd experiment, read-out: MBC): 0.06 µg/mL (≈ 0.172 µM) | MBC (A. baumannii ATCC 19606 [21]; ATCC19606, read-out: MBC +0.06 μg/ml PB, A. baumannii ATCC 19606, +0.06 μg/ml polymyxin B, 1st experiment): 0.06 µg/mL
